Patent US20050048508A1, “Trehalose receptor and method for detecting trehalose with the same” (KABUSHIKI KAISHA HAYASHIBARA SEIBUTSU KAGAKU KENKYUJO, priority 2002, published 2005)

Target: T1, T1R2 and T1R3 without G protein α-subunit (Mus musculus, UniProt Q925D8+Q925I4, E350G/G527D/I706N/P352R/R175Q)
T1 construct: expressed in transfected cells; host or cells: 293 cells, RCB 1637 (human embryonic kidney)
T1 sequence (Q925I4 20-843 R175Q/E350G/P352R/G527D): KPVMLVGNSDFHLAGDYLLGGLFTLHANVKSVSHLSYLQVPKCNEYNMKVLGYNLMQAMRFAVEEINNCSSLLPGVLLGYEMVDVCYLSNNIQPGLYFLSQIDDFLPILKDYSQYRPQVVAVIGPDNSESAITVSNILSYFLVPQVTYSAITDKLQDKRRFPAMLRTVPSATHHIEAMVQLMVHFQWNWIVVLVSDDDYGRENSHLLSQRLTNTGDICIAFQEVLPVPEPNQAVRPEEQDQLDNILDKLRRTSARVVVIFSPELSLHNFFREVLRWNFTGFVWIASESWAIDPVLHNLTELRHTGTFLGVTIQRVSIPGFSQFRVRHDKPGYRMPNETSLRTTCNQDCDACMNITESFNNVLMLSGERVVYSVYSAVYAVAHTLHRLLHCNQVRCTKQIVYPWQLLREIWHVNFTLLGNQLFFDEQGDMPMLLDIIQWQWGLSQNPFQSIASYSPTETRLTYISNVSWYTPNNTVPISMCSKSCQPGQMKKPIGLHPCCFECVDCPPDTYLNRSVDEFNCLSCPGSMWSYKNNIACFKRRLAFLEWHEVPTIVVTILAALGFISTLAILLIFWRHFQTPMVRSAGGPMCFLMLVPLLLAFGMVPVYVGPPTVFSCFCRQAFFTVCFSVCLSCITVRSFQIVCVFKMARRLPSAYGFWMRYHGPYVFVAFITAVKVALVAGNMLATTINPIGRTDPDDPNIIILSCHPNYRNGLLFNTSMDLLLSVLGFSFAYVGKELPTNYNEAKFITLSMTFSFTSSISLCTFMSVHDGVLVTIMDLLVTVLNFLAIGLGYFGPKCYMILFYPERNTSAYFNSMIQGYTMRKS
T1 sequence (Q925D8 21-858 I706N): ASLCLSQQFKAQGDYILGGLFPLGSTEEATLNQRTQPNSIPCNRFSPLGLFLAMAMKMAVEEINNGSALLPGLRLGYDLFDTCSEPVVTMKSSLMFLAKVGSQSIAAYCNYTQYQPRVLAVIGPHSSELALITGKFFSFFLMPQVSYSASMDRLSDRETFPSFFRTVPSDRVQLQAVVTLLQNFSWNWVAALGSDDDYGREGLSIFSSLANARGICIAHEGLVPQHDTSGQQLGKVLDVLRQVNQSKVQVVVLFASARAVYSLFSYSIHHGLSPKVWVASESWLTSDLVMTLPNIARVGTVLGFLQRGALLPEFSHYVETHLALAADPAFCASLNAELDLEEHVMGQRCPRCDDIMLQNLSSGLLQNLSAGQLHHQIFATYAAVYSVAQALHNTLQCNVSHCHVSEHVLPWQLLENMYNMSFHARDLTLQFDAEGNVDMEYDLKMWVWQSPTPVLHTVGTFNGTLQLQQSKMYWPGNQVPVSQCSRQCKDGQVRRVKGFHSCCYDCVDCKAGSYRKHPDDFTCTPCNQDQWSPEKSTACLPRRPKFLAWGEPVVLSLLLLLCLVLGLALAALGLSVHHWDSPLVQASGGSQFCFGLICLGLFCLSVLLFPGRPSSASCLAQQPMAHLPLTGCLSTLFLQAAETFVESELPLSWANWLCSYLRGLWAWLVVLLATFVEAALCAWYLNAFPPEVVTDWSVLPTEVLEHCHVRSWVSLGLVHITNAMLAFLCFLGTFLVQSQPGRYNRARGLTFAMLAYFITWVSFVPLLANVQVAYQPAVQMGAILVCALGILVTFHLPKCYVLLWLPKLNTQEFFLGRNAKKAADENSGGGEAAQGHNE
Assay: Intracellular calcium ion assay, 293 cells expressing T1R2 and T1R3 without G protein α-subunits
Type: cell-based
Details: 293 cells: T1R2 + T1R3, no G protein α-subunit; 0.67 ml of 1 M saccharide solution added to 2 ml cell suspension

## OC[C@H]1O[C@@](CO)(O[C@H]2O[C@H](CO)[C@@H](O)[C@H](O)[C@H]2O)[C@@H](O)[C@@H]1O [Sucrose, reference compound]
  Influx of calcium ion: Negative

## OC[C@H]1O[C@H](O[C@H]2O[C@H](CO)[C@@H](O)[C@H](O)[C@H]2O)[C@H](O)[C@@H](O)[C@@H]1O [Trehalose]
  Influx of calcium ion: Negative
